Results: ChEMBL document CHEMBL4219219, “The synthesis and antistaphylococcal activity of N-sulfonaminoethyloxime derivatives of dehydroabietic acid” (Bioorg Med Chem Lett, 2018)
In brackets after ≈: the same amount, converted by molar mass. Activity calls are given as the source filed them. The calls are words filed in the database; no cut-off is given here.

Legend:
Escherichia coli = assay: Antibacterial activity against Escherichia coli AB1157 at 50 ug/ml after 18 hrs by two-fold serial dilution method; type: functional, organism-based
Staphylococcus aureus [1] = assay: Antistaphylococcal activity against Staphylococcus aureus Newman after 18 hrs by two-fold serial dilution method; type: functional
Staphylococcus aureus [2] = assay: Antistaphylococcal activity against aminoglycosides/tetracycline-resistant Staphylococcus aureus NRS-1 after 18 hrs by two-fold serial dilution method; type: functional; conditions: NRS-1, 18 h
Staphylococcus aureus [3] = assay: Antistaphylococcal activity against erythromycin-resistant Staphylococcus aureus NRS-70 after 18 hrs by two-fold serial dilution method; type: functional; conditions: NRS-70, 18 h
Staphylococcus aureus [4] = assay: Antistaphylococcal activity against oxacillin/tetracycline-resistant Staphylococcus aureus NRS-100 after 18 hrs by two-fold serial dilution method; type: functional; conditions: NRS-100, 18 h
Staphylococcus aureus [5] = assay: Antistaphylococcal activity against gentamicin-resistant Staphylococcus aureus NRS-108 after 18 hrs by two-fold serial dilution method; type: functional; conditions: NRS-108, 18 h
Staphylococcus aureus [6] = assay: Antistaphylococcal activity against linezolid-resistant Staphylococcus aureus NRS-271 containing phage type E-MRSA 15 after 18 hrs by two-fold serial dilution method; type: functional; conditions: NRS-271, 18 h
[7] = Metabolic stability in Sprague-Dawley rat plasma after 0.5 to 24 hrs by LC-MS analysis; type: ADME, cell-free
Staphylococcus aureus [8] = assay: Metabolic stability in Staphylococcus aureus Newman at MIC after 12 hrs by LC-MS analysis; type: ADME, organism-based; conditions: in vivo
WiDr = assay: Cytotoxicity against human WiDr cells assessed as decrease in cell survival at 20 times MIC after 24 hrs by MTT assay; type: cell-based
SCLC-21H = assay: Cytotoxicity against human SCLC-21H cells assessed as decrease in cell survival at 20 times MIC after 24 hrs by MTT assay; type: cell-based
J82 = assay: Cytotoxicity against human J82 cells assessed as decrease in cell survival at 20 times MIC after 24 hrs by MTT assay; type: cell-based; conditions: j82, 24 h
HGC-27 = assay: Cytotoxicity against human HGC27 cells assessed as decrease in cell survival at 20 times MIC after 24 hrs by MTT assay; type: cell-based; conditions: hgc-27, 24 h
NCI-H23 = assay: Cytotoxicity against human H23 cells assessed as decrease in cell survival at 20 times MIC after 24 hrs by MTT assay; type: cell-based; conditions: nci-h23, 24 h
HEK-293T = assay: Cytotoxicity against HEK293T cells assessed as decrease in cell survival at 20 times MIC after 24 hrs by MTT assay; type: cell-based; conditions: human
Staphylococcus aureus [9] = assay: Antistaphylococcal activity against Staphylococcus aureus Newman treated with increasing concentration of test compound everyday for 12 hrs measured after 20 days by two-fold serial dilution method; type: functional
Staphylococcus aureus [10] = assay: Antistaphylococcal activity against erythromycin-resistant Staphylococcus aureus NRS-70 treated with increasing concentration of test compound everyday for 12 hrs measured after 20 days by two-fold serial dilution method; type: functional

SMILES	Activity (Escherichia coli)	MIC (Staphylococcus aureus [1]) [µg/mL]	MIC (Staphylococcus aureus [2]) [µg/mL]	MIC (Staphylococcus aureus [3]) [µg/mL]	MIC (Staphylococcus aureus [4]) [µg/mL]	MIC (Staphylococcus aureus [5]) [µg/mL]	MIC (Staphylococcus aureus [6]) [µg/mL]	Stability [7]	Stability (Staphylococcus aureus [8])	Activity (WiDr)	Activity (SCLC-21H)	Activity (J82)	Activity (HGC-27)	Activity (NCI-H23)	Activity (HEK-293T)	MIC (Staphylococcus aureus [9]) [µg/mL]	MIC (Staphylococcus aureus [10]) [µg/mL]
CC(C)c1cc2c(cc1Br)[C@@]1(C)CCC[C@@](C)(C(=O)O)[C@@H]1C/C2=N\OCCNS(=O)(=O)c1ccc(C(F)(F)F)cc1	inactive	1.56 to 3.13 (≈ 2.37 to 4.75 µM)	0.78 to 1.56 (≈ 1.18 to 2.37 µM)	0.78 to 1.56 (≈ 1.18 to 2.37 µM)	0.78 to 1.56 (≈ 1.18 to 2.37 µM)	0.78 to 1.56 (≈ 1.18 to 2.37 µM)	0.78 to 1.56 (≈ 1.18 to 2.37 µM)	Stable	Stable	Non-Toxic	Non-Toxic	Non-Toxic	Non-Toxic	Non-Toxic	Non-Toxic		
CC(C)c1cc2c(cc1Br)[C@@]1(C)CCC[C@@](C)(C(=O)O)[C@@H]1C/C2=N\OCCNS(=O)(=O)c1cccc(C(F)(F)F)c1	inactive	0.39 to 0.78 (≈ 0.591 to 1.18 µM)	1.56 to 3.13 (≈ 2.37 to 4.75 µM)	0.78 to 1.56 (≈ 1.18 to 2.37 µM)	1.56 to 3.13 (≈ 2.37 to 4.75 µM)	0.78 to 1.56 (≈ 1.18 to 2.37 µM)	1.56 to 3.13 (≈ 2.37 to 4.75 µM)										
Cc1noc(C)c1S(=O)(=O)NCCO/N=C1\C[C@H]2[C@](C)(C(=O)O)CCC[C@]2(C)c2cc(Br)c(C(C)C)cc21	inactive	1.56 to 3.13 (≈ 2.55 to 5.13 µM)	1.56 to 3.13 (≈ 2.55 to 5.13 µM)	1.56 to 3.13 (≈ 2.55 to 5.13 µM)	3.13 to 6.25 (≈ 5.13 to 10.2 µM)	1.56 to 3.13 (≈ 2.55 to 5.13 µM)	1.56 to 3.13 (≈ 2.55 to 5.13 µM)	Stable	Stable	Non-Toxic	Non-Toxic	Non-Toxic	Non-Toxic	Non-Toxic	Non-Toxic	6.25 to 12.5 (≈ 10.2 to 20.5 µM)	6.25 to 12.5 (≈ 10.2 to 20.5 µM)
CC(C)c1cc2c(cc1Br)[C@@]1(C)CCC[C@@](C)(C(=O)O)[C@@H]1C/C2=N\OCCNS(=O)(=O)c1ccc(Cl)c(C(F)(F)F)c1	inactive	0.78 to 1.56 (≈ 1.12 to 2.25 µM)	12.5 to 25 (≈ 18 to 36 µM)	0.78 to 1.56 (≈ 1.12 to 2.25 µM)	> 50	0.78 to 1.56 (≈ 1.12 to 2.25 µM)	25 to 50 (≈ 36 to 72 µM)										
